Laboratory results reported in PMC7179450, “Primary Human Hepatocytes, But not HepG2 or Balb/c 3T3 Cells, Efficiently Metabolize Salinomycin and Are Resistant to Its Cytotoxicity” (Molecules, 2020).

Legend:
[1] = tested on: HepG2 cells; assay: MTT assay, cytotoxicity in HepG2; assay type: cell-based; conditions: Homo sapiens, mean ± SEM, n = 3, read-out: EC50 (effective concentration)
Procedure: The HepG2 cell line was purchased from the American Type Culture Collection (ATCC® HB-8065™). The cells were cultured in Minimum Essential Medium Eagle (MEME) (Sigma–Aldrich Co. (St. Louis, MO, USA)). Normal murine embryonic fibroblasts, Balb/c 3T3 clone A31 cell line (gift from Department of Swine Diseases of the National Veterinary Research Institute in Pulawy) was cultured in Dulbecco’s Modified Eagle’s Medium (DMEM) (Invitrogen Corporations (Paisley, UK)). The media were supplemented with 10% BCS (Balb/c 3T3), 10% FBS (HepG2), 1% L-glutamine, and 1% antibiotic solution. The cells were maintained in 75 cm^2 cell culture flasks in humidified incubator at 37 °C, in an atmosphere of 5% CO2. […] The initial cell viability was determined with the trypan blue exclusion test. […]
The concentration ranges of the drugs were chosen according to their solubility and their plasma level. […] The cytotoxicity was assessed after 24 and 48 h of exposure of cell lines or after 12 and 24 h exposure of PHH. […]
(§1) The metabolic activity of living cells was assessed by measuring the activity of dehydrogenases. […] The plate was shaken for 15 min at room temperature and transferred to a microplate reader to measure the absorbance at 570 nm, using a blank as a reference. Cytotoxicity was expressed as a percentage of the negative control (0.1% or 0.2% DMSO).

[2] = Cytotoxicity battery in fibroblasts; assay type: cell-based; conditions: mouse, Balb/c 3T3 fibroblasts, inhibiting lysosomal and mitochondrial activity and synthesis of cellular proteins, read-out: cytotoxic concentrations
Procedure: (§2) The concentration ranges of the drugs were chosen according to their solubility and their plasma level. Each drug was dissolved in DMSO. The final concentration of DMSO was 0.1% or 0.2% in the medium for both samples and corresponding controls. […] All drug solutions in medium were freshly prepared and protected from light. SAL was tested in seven concentrations from 0.39 to 25 µg/mL. Tiamulin was added in two concentrations (1 and 10 µg/mL) or just one concentration (1 µg/mL) to cell lines or human hepatocytes, respectively. Prednisolone was tested in one concentration—1 µg/mL independent of the type of cells. […] The cytotoxicity was assessed after 24 and 48 h of exposure of cell lines or after 12 and 24 h exposure of PHH. […]
as §1
The assay, based on staining of living cells by neutral red (NR), was performed according to the protocol described by Borenfreund and Puerner. […] After 10 min of shaking, the absorbance of the dissolved NR was measured at 540 nm using a blank as a reference. […]

[3] = tested on: HepG2 cells; assay: TPC assay in HepG2; assay type: cell-based, human; conditions: for EC50: Homo sapiens, read-out: EC50 (effective concentration)
Procedure: The HepG2 cell line was purchased from the American Type Culture Collection (ATCC® HB-8065™). The cells were cultured in Minimum Essential Medium Eagle (MEME) (Sigma–Aldrich Co. (St. Louis, MO, USA)). Normal murine embryonic fibroblasts, Balb/c 3T3 clone A31 cell line (gift from Department of Swine Diseases of the National Veterinary Research Institute in Pulawy) was cultured in Dulbecco’s Modified Eagle’s Medium (DMEM) (Invitrogen Corporations (Paisley, UK)). The media were supplemented with 10% BCS (Balb/c 3T3), 10% FBS (HepG2), 1% L-glutamine, and 1% antibiotic solution. The cells were maintained in 75 cm^2 cell culture flasks in humidified incubator at 37 °C, in an atmosphere of 5% CO2. The medium was refreshed every two or three days and the cells were trypsinized by 0.25% trypsin–0.02% EDTA after reaching 70–80% confluence. The initial cell viability was determined with the trypan blue exclusion test. Single cell suspensions were prepared and adjusted to a density of 2 × 10^5 cell/mL (HepG2) and 1 × 10^5 cell/mL (Balb/c 3T3). The cell suspension was transferred to 96-well plates (100 µL/well) and incubated for 24 h before exposure to the studied drugs.
as §2, with “respectively.” for “respectively. Prednisolone was tested in one concentration—1 µg/mL independent of the type of cells.”
The assay was based on staining total cellular protein [14]. […] The absorbance was measured at 595 nm in a microplate reader using blank as a reference. Cytotoxicity was expressed as a percentage of the negative control (0.1% or 0.2% DMSO).

## CC[C@@H](C(=O)[C@@H](C)[C@@H](O)[C@H](C)[C@@H]1O[C@@H]([C@@H](CC)C(=O)O)CC[C@@H]1C)[C@H]1O[C@]2(C=C[C@@H](O)[C@]3(CC[C@@](C)([C@H]4CC[C@](O)(CC)[C@H](C)O4)O3)O2)[C@H](C)C[C@@H]1C [SAL, salinomycin]
[1]; 24 h exposure
  EC50: 15.4 ± 1.7 µg/mL
[1]; 48 h exposure
  EC50: 12.9 ± 1.4 µg/mL
[2]
  EC50: 0.6 to 10 µg/mL
[3]; HepG2, 24 h, SAL alone or in both drug combinations (Figure S2)
  lowest concentration with significant effect on total protein content: 0.39 µg/mL
[3]; HepG2, 24 h
  EC50: 13.3 ± 2.5 µg/mL
[3]; HepG2, 48 h
  EC50: 11.3 ± 1.3 µg/mL
